Key:
Format in all cases: functional
NCI-H322M [1] = assay: Growth inhibition of human NCI-H322M cells assessed as cell growth at 5X10'-6 M after 48 hrs by sulforhodamine B assay; conditions: read-out: Activity
SF-539 = assay: Growth inhibition of human SF539 cells assessed as cell growth at 5X10'-8 M after 48 hrs by sulforhodamine B assay; conditions: SF-539, 48 h, read-out: Activity
MDA-MB-231 = assay: Growth inhibition of human MDA-MB-231 cells assessed as cell growth at 5X10'-8 M after 48 hrs by sulforhodamine B assay; conditions: MDA-MB-231, 48 h, read-out: Activity
ACHN = assay: Growth inhibition of human ACHN cells assessed as cell growth at 5X10'-5 M after 48 hrs by sulforhodamine B assay; conditions: read-out: Activity
SK-MEL-28 = assay: Growth inhibition of human SK-MEL-28 cells assessed as cell growth at 5X10'-9 M after 48 hrs by sulforhodamine B assay; conditions: SK-MEL-28, 48 h, read-out: Activity
MOLT-4 = assay: Growth inhibition of human MOLT4 cells assessed as cell growth at 5X10'-9 M after 48 hrs by sulforhodamine B assay; conditions: MOLT-4, 48 h, read-out: Activity
SF-268 = assay: Growth inhibition of human SF268 cells assessed as cell growth at 5X10'-8 M after 48 hrs by sulforhodamine B assay; conditions: SF-268, 48 h, read-out: Activity
[2] = Growth inhibition of human HCC2998 cells assessed as cell growth at 5X10'-7 M after 48 hrs by sulforhodamine B assay; conditions: HCC 2998, 48 h, read-out: Activity
SK-MEL-5 = assay: Growth inhibition of human SK-MEL-5 cells assessed as cell growth at 5X10'-6 M after 48 hrs by sulforhodamine B assay; conditions: SK-MEL-5, 48 h, read-out: Activity
SR = assay: Growth inhibition of human SR cells assessed as cell growth at 5X10'-6 M after 48 hrs by sulforhodamine B assay; conditions: read-out: Activity
UACC-257 [3] = assay: Growth inhibition of human UACC257 cells assessed as cell growth at 5X10'-5 M after 48 hrs by sulforhodamine B assay; conditions: UACC-257, 48 h, read-out: Activity
BT-549 [4] = assay: Growth inhibition of human BT549 cells assessed as cell growth at 5X10'-9 M after 48 hrs by sulforhodamine B assay; conditions: BT-549, 48 h, read-out: Activity
Malme-3M = assay: Growth inhibition of human MALME-3M cells assessed as cell growth at 5X10'-7 M after 48 hrs by sulforhodamine B assay; conditions: read-out: Activity
HT-29 [5] = assay: Growth inhibition of human HT-29 cells assessed as cell growth at 5X10'-6 M after 48 hrs by sulforhodamine B assay; conditions: HT-29, 48 h, read-out: Activity
SN12C [6] = assay: Growth inhibition of human SN12C cells assessed as cell growth at 5X10'-6 M after 48 hrs by sulforhodamine B assay; conditions: read-out: Activity
OVCAR-3 [7] = assay: Growth inhibition of human OVCAR3 cells assessed as cell growth at 5X10'-7 M after 48 hrs by sulforhodamine B assay; conditions: OVCAR-3, 48 h, read-out: Activity
UACC-62 [8] = assay: Growth inhibition of human UACC62 cells assessed as cell growth at 5X10'-7 M after 48 hrs by sulforhodamine B assay; conditions: UACC-62, 48 h, read-out: Activity
SN12C [9] = assay: Growth inhibition of human SN12C cells assessed as cell growth at 5X10'-9 M after 48 hrs by sulforhodamine B assay; conditions: read-out: Activity
UACC-257 [10] = assay: Growth inhibition of human UACC257 cells assessed as cell growth at 5X10'-7 M after 48 hrs by sulforhodamine B assay; conditions: UACC-257, 48 h, read-out: Activity
SN12C [11] = assay: Growth inhibition of human SN12C cells assessed as cell growth at 5X10'-7 M after 48 hrs by sulforhodamine B assay; conditions: read-out: Activity
NCI-H226 = assay: Growth inhibition of human NCI-H226 cells assessed as cell growth at 5X10'-5 M after 48 hrs by sulforhodamine B assay; conditions: NCI-H226, 48 h, read-out: Activity
UACC-62 [12] = assay: Growth inhibition of human UACC62 cells assessed as cell growth at 5X10'-6 M after 48 hrs by sulforhodamine B assay; conditions: UACC-62, 48 h, read-out: Activity
NCI-H322M [13] = assay: Growth inhibition of human NCI-H322M cells assessed as cell growth at 5X10'-7 M after 48 hrs by sulforhodamine B assay; conditions: read-out: Activity
NCI-H460 = assay: Growth inhibition of human NCI-H460 cells assessed as cell growth at 5X10'-5 M after 48 hrs by sulforhodamine B assay; conditions: NCI-H460, 48 h, read-out: Activity
SN12C [14] = assay: Growth inhibition of human SN12C cells assessed as cell growth at 5X10'-5 M after 48 hrs by sulforhodamine B assay; conditions: read-out: Activity
A498 [15] = assay: Growth inhibition of human A498 cells assessed as cell growth at 5X10'-7 M after 48 hrs by sulforhodamine B assay; conditions: A498, 48 h, read-out: Activity
A498 [16] = assay: Growth inhibition of human A498 cells assessed as cell growth at 5X10'-8 M after 48 hrs by sulforhodamine B assay; conditions: A498, 48 h, read-out: Activity
SNB-19 = assay: Growth inhibition of human SNB19 cells assessed as cell growth at 5X10'-8 M after 48 hrs by sulforhodamine B assay; conditions: SNB-19, 48 h, read-out: Activity
OVCAR-3 [17] = assay: Growth inhibition of human OVCAR3 cells assessed as cell growth at 5X10'-6 M after 48 hrs by sulforhodamine B assay; conditions: OVCAR-3, 48 h, read-out: Activity
NCI-H522 = assay: Growth inhibition of human NCI-H522 cells assessed as cell growth at 5X10'-6 M after 48 hrs by sulforhodamine B assay; conditions: NCI-H522, 48 h, read-out: Activity
PC-3 = assay: Growth inhibition of human PC3 cells assessed as cell growth at 5X10'-7 M after 48 hrs by sulforhodamine B assay; conditions: PC-3, 48 h, read-out: Activity
M14 = assay: Growth inhibition of human M14 cells assessed as cell growth at 5X10'-5 M after 48 hrs by sulforhodamine B assay; conditions: M14, 48 h, read-out: Activity
BT-549 [18] = assay: Growth inhibition of human BT549 cells assessed as cell growth at 5X10'-7 M after 48 hrs by sulforhodamine B assay; conditions: BT-549, 48 h, read-out: Activity
HT-29 [19] = assay: Growth inhibition of human HT-29 cells assessed as cell growth at 5X10'-7 M after 48 hrs by sulforhodamine B assay; conditions: HT-29, 48 h, read-out: Activity
UACC-62 [20] = assay: Growth inhibition of human UACC62 cells assessed as cell growth at 5X10'-8 M after 48 hrs by sulforhodamine B assay; conditions: UACC-62, 48 h, read-out: Activity
MCF7 = assay: Growth inhibition of human MCF7 cells assessed as cell growth at 5X10'-7 M after 48 hrs by sulforhodamine B assay; conditions: MCF7, 48 h, read-out: Activity
[21] = Growth inhibition of human HCC2998 cells assessed as cell growth at 5X10'-5 M after 48 hrs by sulforhodamine B assay; conditions: HCC 2998, 48 h, read-out: Activity
NCI-H322M [22] = assay: Growth inhibition of human NCI-H322M cells assessed as cell growth at 5X10'-8 M after 48 hrs by sulforhodamine B assay; conditions: read-out: Activity

Compound | growth at 5 µM (NCI-H322M [1]) | growth at 0.05 µM (SF-539) | growth at 0.05 µM (MDA-MB-231) | growth at 50 µM (ACHN) | growth at 0.005 µM (SK-MEL-28) | growth at 0.005 µM (MOLT-4) | growth at 0.05 µM (SF-268) | growth at 0.5 µM [2] | growth at 5 µM (SK-MEL-5) | growth at 5 µM (SR) | growth at 50 µM (UACC-257 [3]) | growth at 0.005 µM (BT-549 [4]) | growth at 0.5 µM (Malme-3M) | growth at 5 µM (HT-29 [5]) | growth at 5 µM (SN12C [6]) | growth at 0.5 µM (OVCAR-3 [7]) | growth at 0.5 µM (UACC-62 [8]) | growth at 0.005 µM (SN12C [9]) | growth at 0.5 µM (UACC-257 [10]) | growth at 0.5 µM (SN12C [11]) | other results
COc1cc(-c2nn(-c3cccc(NC(=O)Nc4cc(C(F)(F)F)cc(C(F)(F)F)c4)c3)cc2-c2ccncc2)ccc1Cl | -24% | 90% | 95% | -34% | 101% | 104% | 105% | 95% | -96% | -9% | -54% | 103% | 83% | -68% | -16% | 45% | 66% | 96% | 82% | 75% | growth at 50 µM (NCI-H226): -4%; growth at 5 µM (UACC-62 [12]): -66%; growth at 0.5 µM (NCI-H322M [13]): 83%; growth at 50 µM (NCI-H460): -59%; growth at 50 µM (SN12C [14]): -45%; growth at 0.5 µM (A498 [15]): 59%; growth at 0.05 µM (A498 [16]): 82%; growth at 0.05 µM (SNB-19): 91%; growth at 5 µM (OVCAR-3 [17]): -69%; growth at 5 µM (NCI-H522): -48%; growth at 0.5 µM (PC-3): 33%; growth at 50 µM (M14): -28%; growth at 0.5 µM (BT-549 [18]): 98%; growth at 0.5 µM (HT-29 [19]): 70%; growth at 0.05 µM (UACC-62 [20]): 93%; growth at 0.5 µM (MCF7): 68%; growth at 50 µM [21]: -88%; growth at 0.05 µM (NCI-H322M [22]): 103%
COc1cc(-c2nn(-c3cccc(NC(=O)Nc4ccc(Cl)c(Cl)c4)c3)cc2-c2ccncc2)ccc1Cl | 15% | 85% | 89% | 5% | 106% | 103% | 102% | 97% | -86% | -26% | -30% | 104% | 82% | 2% | 14% | 64% | 75% | 94% | 83% | 82% | growth at 50 µM (NCI-H226): 4%; growth at 5 µM (UACC-62 [12]): -56%; growth at 0.5 µM (NCI-H322M [13]): 89%; growth at 50 µM (NCI-H460): 2%; growth at 50 µM (SN12C [14]): 10%; growth at 0.5 µM (A498 [15]): 80%; growth at 0.05 µM (A498 [16]): 89%; growth at 0.05 µM (SNB-19): 95%; growth at 5 µM (OVCAR-3 [17]): -34%; growth at 5 µM (NCI-H522): -18%; growth at 0.5 µM (PC-3): 53%; growth at 50 µM (M14): -52%; growth at 0.5 µM (BT-549 [18]): 97%; growth at 0.5 µM (HT-29 [19]): 81%; growth at 0.05 µM (UACC-62 [20]): 94%; growth at 0.5 µM (MCF7): 68%; growth at 50 µM [21]: -19%; growth at 0.05 µM (NCI-H322M [22]): 102%
